These results are taken from patent publication US12576103B2 (priority 2020, dated 2026).

As usually defined, the inhibition is the percentage by which the read-out fell short of the control.

The subject of one data set is ciliary motility. Particulars: cited from earlier work.
The subject of the next data set is SARS-COV-2. In words: microbe, parasite or virus in culture. Particulars: for SARS-CoV-2 infectivity of VERO cells: at concentrations which were not cytotoxic. Format: cell-based.
Another data set deals with VERO cells. Description: Non-virus related cytotoxicity in VERO cells by light microscopy. Format: cell-based. Particulars: at the inhibiting concentrations (LMWH 125 μM, N-acetylcysteine 25 mM). On the procedure: For experiments in which infectivity was being tested, either VERO cells in media or SARS-COV-2 viral particles were incubated with potential inhibitors for one hour. Then viral particles were added to VERO cells and incubation continued for up to seven days. Cytotoxicity and viral-induced cytopathological effects were examined by light microscopy.
In order to test if AT-H201 had antiviral activity against SARS-COV-2 the standard VERO cells assay was performed. Test compounds were incubated either with the virus, to simulate antibody-like surface binding, or with the cells, to simulate either cell surface changes or to act intracellularly. Serial dilutions were conducted and the cytopathic effect (CPE) was observed by microscopy. Non-virus related cytotoxicity, if present was also noted.

For data set [1] the following is noted: aqueous solution at physiologic pH; cited from earlier work.
Data set [2] can be described thus: Nebulized anticoagulants in preclinical models for lung injury. Format: in vivo. The text has this: Nebulized anticoagulants attenuate pulmonary coagulopathy in preclinical studies using various models for lung injury. Effects on inflammation are less consistent.
Data set [3] is described as follows: Nebulized heparin in patients with pulmonary infection or lung injury (Example 6). Format: in vivo. The source says: Nebulized heparin also affects various physiologic parameters and other outcomes, in particular during pulmonary infection and inhalation trauma.
Reduction of pulmonary coagulopathy at dosages ≥400,000 U/day heparin is observed.
A single dosage of nebulized heparin prior to cardiopulmonary bypass surgery decreases atelectasis and improves CO2 elimination directly after the operation. Nebulized heparin increases the number of ventilator-free days following administration.

In data set [4] the test system is virus that contain PBSC sequences. As to conditions: in vitro; cited from earlier work.
For data set [5] the following is noted: compared with controls. The source says:
Inhalation injury is a major cause of morbidity and mortality in patients with burns. Presence of airways injury adds to the need of fluid supplementation, increases risk of pulmonary complications. Due to many mechanisms involved in pathophysiology the treatment is complex. Among them the formation of fibrin casts inside airways constitutes a prominent element. The material residing in tracheobronchial tree causes ventilation-perfusion mismatch, complicates mechanical ventilation, provides a medium for bacterial growth. Inhaled anticoagulation regimens employing heparin in management of inhalation injury are tested. Simultaneously safety, especially in connection with possible bleeding risk, is measured.
Data are collected in patients receiving nebulized heparin and in historical controls. Data is analyzed separately with 1) all subjects included and 2) with subjects who died/were discharged on the ventilator excluded.

A short description of data set [6]: Phase 1 clinical study of nebulized heparin in volunteers (Example 4). On the procedure:
This example describes the safety and efficacy of nebulized heparin and NAC in normal subjects. A Phase 1 clinical study of nebulized heparin is conducted to investigate the safety of increasing doses of a well-defined lower respiratory tract (LRT) dose of inhaled heparin with regard to pulmonary function and coagulation. Ten volunteers inhale heparin from Sidestream jet nebulizers loaded with 100,000, 200,000, 300,000 or 400,000 International Units (ID) of heparin.

Where [7] appears, read: nebulized, presence of pulmonary infection or lung injury.

“Also recorded” adds a separate entry of the source.

As to “2-alkyl-4-hydroxyquinolines [pyo compound]”, the “concentration producing ciliostasis / inhibiting ciliary motility” value with ciliary motility is 50 µg/mL.

As for `CCN(CCO)CCCC(C)Nc1ccnc2cc(Cl)ccc12` (centres unmarked) [Hydroxychloroquine, hydroxychloroquine], the inhibition at 16 µM in the data set with SARS-COV-2 (Severe acute respiratory syndrome coronavirus 2, Vero, at 16 μM, incubation with cells, read-out: Inhibition of Virus Infection) was determined as 100%.

`CC(=O)N[C@@H](CS)C(=O)O` [NAC, N-acetylcysteine]: the inhibition at 25000 µM with SARS-COV-2 (Severe acute respiratory syndrome coronavirus 2, Vero, at 25 mM, incubation with cells, read-out: Inhibition of Virus Infection) turned out to be 100%. In addition, the inhibiting viral entry result with SARS-COV-2 (at 25 mM) is recorded as “effective”. In addition, the inhibition of infectivity entry is recorded as “completely inhibit” in the data set with SARS-COV-2 (at 25 mM, incubated with cells) and “did not inhibit” in the data set on SARS-COV-2 (incubated with SARS-COV-2 (virus)). In the data set on SARS-COV-2, the “SARS-CoV-2 infectivity of VERO cells” value is reported as “inhibited”. Besides, the Cytotoxicity result in the data set with VERO cells is recorded as “not seen”.

As to `CCN(CC)/[N+]([O-])=N/O.CCNCC` [diethylamine/NO], in [1], the “rate of NO release” value was less than 3 min.

In the case of `NCCN(CCN)/[N+]([O-])=N/O` [diethylenetriamine/NO], in data set [1], the “rate of NO release” value is “approximately 20 hours”.

With danaparoid, in data set [2], the systemic coagulation entry is “reduce”.

As to enoxaparin [LMWH], the “inhibition of SARS-COV-2 infectivity” value in the data set on SARS-COV-2 (at 125 μM, SARS-COV-2 incubated with compound before VERO cell exposure) is “complete inhibition”. Besides, the “inhibition of viral cytopathic effects / SARS-COV-2 infectivity” value with SARS-COV-2 (at nanomolar concentrations, incubated with the virus or with the cells) was “completely inhibiting; also recorded: nanomolar efficacy”. Besides, the inhibition of infectivity entry with SARS-COV-2 (either incubated with the virus or incubated with the cells) is “effective”. Besides, in the data set with VERO cells, the Cytotoxicity result was “not seen”.

For the compound heparin, the bleeding incidences result in data set [3] (at dosages ≥100,000 U) was “without affecting”. Also, in data set [3] (nebulized), the “dosages at which reduction of pulmonary coagulopathy is observed” value is recorded as ≥ 400,000 U/day, the “dosages at which systemic coagulation is affected” value is given as ≥ 100,000 U, the mortality result is reported as “does not increase” and the “number of ventilator-free days” value is on record as “increases”. In data set [3] (nebulized), the “physiological parameters, such as arterial oxygenation or pulmonary compliance” value is “does not affect”; the systemic bleeding result is reported as “does not cause; also recorded: does not result in differences”; the systemic coagulation result is “affects”. For the same compound, in data set [3] (setting [7]), the “anticoagulant effect in the lungs” value was “has an anticoagulant effect” and the pulmonary inflammation entry is listed as “inhibits”. In data set [3] (single nebulized dosage prior to cardiopulmonary bypass surgery), the atelectasis result is “decreases”. For the same compound, in [3] (single nebulized dosage prior to cardiopulmonary bypass surgery, directly after the operation), the CO2 elimination entry was “improves”. For the same compound, in the data set on SARS-COV-2, the “SARS-CoV-2 infectivity of VERO cells” value was “inhibited”. Also, in data set [2], the systemic coagulation result was “reduce”. For the same compound, the “infectivity of virus that contain PBSC sequences” value in [4] is given as “blocks infectivity”. In [5], the 28-day mortality entry was “no differences”, the hospitalization length entry is “no differences”, the “lung injury score during the first 7 days post injury” value was “no differences” and the ventilator-associated pneumonia rate result is “no differences”. The “Peak anti-Xa activity” value in data set [6] (6 h after inhalation of 400,000 ID heparin) was 0.113 ID/mL. Also, the APTT maximum in [6] (6 h after inhalation of 400,000 ID heparin (p=0.05)) was determined as 1.03. In addition, in data set [6] (after 200,000, 300,000, and 400,000 ID heparin), the “anti-Xa compared to baseline values” is reported as “increases”. Besides, in data set [6] (delivery of 32,000 IU to the lower respiratory tract), the safety of inhalation entry is “can safely be inhaled”. Further, in data set [6] (inhaled, 100,000-400,000 IU), the “area under the curve of the anti-Xa activity” value is listed as “increase with increasing doses”. Further, the pulmonary function entry in [6] (inhaled, 100,000-400,000 IU loaded in nebulizer) was “did not affect”.

Consider rhamnolipid, for which, in the data set with ciliary motility (associated with altered ciliary membranes), the “effect of limited exposure of tracheal explants” value is “ciliostasis”.
